Laboratory results from US4414334A, “Oxygen scavenging with enzymes” (Phillips Petroleum Company, priority 1981, dated 1983).

Assays:
[1] = target: alcohol oxidase (alcohol: oxygen oxidoreductase) isolated from Pichia pastoris (Komagataella phaffii, UniProt F2QY27)
[2] = substrate: CO; assay: purified protein, by the assay type; conditions: other: Pichia pastoris alcohol oxidase; substrate methanol

C=O [HCHO, formaldehyde]
Inhibitors (inhibitory concentration of HCHO) ([1]; Table I lists HCHO as inhibitor at >30 mM): > 30 mM

CO [methanol]
Km ([1]; read-out: apparent Michaelis constant, Km, for methanol, substrate methanol): ~4 mM

B1: alcohol oxidase (alcohol: oxygen oxidoreductase) isolated from Pichia pastoris (Komagataella phaffii CBS 7435) (protein)
chain: AIPEEFDILVLGGGSSGSCIAGRLANLDHSLKVGLIEAGENNLNNPWVYLPGIYPRNMKLDSKTASFYTSNPSPHLNGRRAIVPCANVLGGGSSINFMMYTRGSASDYDDFQAEGWKTKDLLPLMKKTETYQRACNNPDIHGFEGPIKVSFGNYTYPVCQDFLRASESQGIPYVDDLEDLVTAHGAEHWLKWINRDTGRRSDSAHAFVHSTMRNHDNLYLICNTKVDKIIVEDGRAAAVRTVPSKPLNPKKPSHKIYRARKQIVLSCGTISSPLVLQRSGFGDPIKLRAAGVKPLVNLPGVGRNFQDHYCFFSPYRIKPQYESFDDFVRGDAEIQKRVFDQWYANGTGPLATNGIEAGVKIRPTPEELSQMDESFQEGYREYFEDKPDKPVMHYSIIAGFFGDHTKIPPGKYMTMFHFLEYPFSRGSIHITSPDPYAAPDFDPGFMNDERDMAPMVWAYKKSRETARRMDHFAGEVTSHHPLFPYSSEARALEMDLETSNAYGGPLNLSAGLAHGSWTQPLKKPTAKNEGHVTSNQVELHPDIEYDEEDDKAIENYIREHTETTWHCLGTCSIGPREGSKIVKWGGVLDHRSNVYGVKGLKVGDLSVCPDNVGCNTYTTALLIGEKTATLVGEDLGYSGEALDMTVPQFKLGTYEKTGLARF
Km [2]: 4 mM
